Test [1] addresses BRM (Homo sapiens, UniProt P51531). The experiment in a line: ATPase catalytic activity assay (ADP-Glo), BRM. The following applies: 30 nM BRM, 400 μM ATP; for IC50: BRM ATPase: IC50 (uM).
In test [2] the target is BRG-1 (Homo sapiens, UniProt P51532). The test is described as follows: ATPase catalytic activity assay (ADP-Glo), BRG-1. The following applies: for Emax: 1 h, read-out: BRG1 Max % Inhibition, ADP-Glo, 30 nM BRG-1, 400 μM ATP. For orientation: ADP-Glo first removes unused ATP, then detects ADP through luciferase.
Chain of BRG-1 (P51532 whole entry): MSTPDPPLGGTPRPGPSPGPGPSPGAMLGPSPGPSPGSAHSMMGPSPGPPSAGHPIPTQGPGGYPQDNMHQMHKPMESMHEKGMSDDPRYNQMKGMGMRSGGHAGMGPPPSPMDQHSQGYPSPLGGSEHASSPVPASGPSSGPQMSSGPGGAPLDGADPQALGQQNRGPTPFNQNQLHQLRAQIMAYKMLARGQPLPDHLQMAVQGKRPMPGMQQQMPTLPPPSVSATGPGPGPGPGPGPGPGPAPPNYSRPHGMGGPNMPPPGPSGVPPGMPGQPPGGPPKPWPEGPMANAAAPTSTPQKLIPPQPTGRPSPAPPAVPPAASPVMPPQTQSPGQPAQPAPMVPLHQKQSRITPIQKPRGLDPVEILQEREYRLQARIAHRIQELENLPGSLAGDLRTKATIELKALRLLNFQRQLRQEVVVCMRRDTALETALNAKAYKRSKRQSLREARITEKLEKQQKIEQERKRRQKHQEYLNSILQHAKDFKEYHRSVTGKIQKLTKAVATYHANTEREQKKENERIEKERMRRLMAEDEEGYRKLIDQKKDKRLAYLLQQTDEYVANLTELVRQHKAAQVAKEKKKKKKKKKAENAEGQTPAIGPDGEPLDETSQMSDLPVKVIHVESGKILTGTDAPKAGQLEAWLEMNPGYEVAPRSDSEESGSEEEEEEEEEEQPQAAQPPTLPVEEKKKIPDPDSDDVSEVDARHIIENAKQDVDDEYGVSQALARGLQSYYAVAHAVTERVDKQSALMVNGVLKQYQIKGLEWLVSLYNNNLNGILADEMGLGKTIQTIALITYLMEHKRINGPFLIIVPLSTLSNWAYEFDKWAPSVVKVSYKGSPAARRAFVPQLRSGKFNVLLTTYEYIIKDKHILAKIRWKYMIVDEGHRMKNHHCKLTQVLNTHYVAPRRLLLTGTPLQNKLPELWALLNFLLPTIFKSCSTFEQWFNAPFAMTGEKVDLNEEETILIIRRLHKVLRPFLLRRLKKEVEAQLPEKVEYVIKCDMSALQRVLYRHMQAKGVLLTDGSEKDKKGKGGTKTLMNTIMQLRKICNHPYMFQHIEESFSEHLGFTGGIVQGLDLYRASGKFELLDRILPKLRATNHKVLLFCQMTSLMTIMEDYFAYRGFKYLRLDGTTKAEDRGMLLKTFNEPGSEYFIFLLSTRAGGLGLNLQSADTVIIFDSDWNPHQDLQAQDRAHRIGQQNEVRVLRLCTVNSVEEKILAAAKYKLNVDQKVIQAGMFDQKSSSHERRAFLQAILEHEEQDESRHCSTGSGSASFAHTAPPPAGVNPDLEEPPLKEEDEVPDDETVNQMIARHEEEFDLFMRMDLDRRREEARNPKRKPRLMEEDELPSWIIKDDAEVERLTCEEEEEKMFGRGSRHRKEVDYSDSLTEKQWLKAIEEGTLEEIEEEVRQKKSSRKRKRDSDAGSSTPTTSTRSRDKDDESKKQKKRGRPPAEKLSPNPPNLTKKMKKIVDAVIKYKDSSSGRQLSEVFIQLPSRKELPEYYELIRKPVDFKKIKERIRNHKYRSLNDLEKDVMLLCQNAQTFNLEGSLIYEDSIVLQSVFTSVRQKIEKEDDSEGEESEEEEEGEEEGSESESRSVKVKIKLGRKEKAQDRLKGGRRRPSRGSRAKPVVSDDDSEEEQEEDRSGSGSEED

Where two headings read alike, the source gives them in different places.

Chain of BRM (P51531 whole entry): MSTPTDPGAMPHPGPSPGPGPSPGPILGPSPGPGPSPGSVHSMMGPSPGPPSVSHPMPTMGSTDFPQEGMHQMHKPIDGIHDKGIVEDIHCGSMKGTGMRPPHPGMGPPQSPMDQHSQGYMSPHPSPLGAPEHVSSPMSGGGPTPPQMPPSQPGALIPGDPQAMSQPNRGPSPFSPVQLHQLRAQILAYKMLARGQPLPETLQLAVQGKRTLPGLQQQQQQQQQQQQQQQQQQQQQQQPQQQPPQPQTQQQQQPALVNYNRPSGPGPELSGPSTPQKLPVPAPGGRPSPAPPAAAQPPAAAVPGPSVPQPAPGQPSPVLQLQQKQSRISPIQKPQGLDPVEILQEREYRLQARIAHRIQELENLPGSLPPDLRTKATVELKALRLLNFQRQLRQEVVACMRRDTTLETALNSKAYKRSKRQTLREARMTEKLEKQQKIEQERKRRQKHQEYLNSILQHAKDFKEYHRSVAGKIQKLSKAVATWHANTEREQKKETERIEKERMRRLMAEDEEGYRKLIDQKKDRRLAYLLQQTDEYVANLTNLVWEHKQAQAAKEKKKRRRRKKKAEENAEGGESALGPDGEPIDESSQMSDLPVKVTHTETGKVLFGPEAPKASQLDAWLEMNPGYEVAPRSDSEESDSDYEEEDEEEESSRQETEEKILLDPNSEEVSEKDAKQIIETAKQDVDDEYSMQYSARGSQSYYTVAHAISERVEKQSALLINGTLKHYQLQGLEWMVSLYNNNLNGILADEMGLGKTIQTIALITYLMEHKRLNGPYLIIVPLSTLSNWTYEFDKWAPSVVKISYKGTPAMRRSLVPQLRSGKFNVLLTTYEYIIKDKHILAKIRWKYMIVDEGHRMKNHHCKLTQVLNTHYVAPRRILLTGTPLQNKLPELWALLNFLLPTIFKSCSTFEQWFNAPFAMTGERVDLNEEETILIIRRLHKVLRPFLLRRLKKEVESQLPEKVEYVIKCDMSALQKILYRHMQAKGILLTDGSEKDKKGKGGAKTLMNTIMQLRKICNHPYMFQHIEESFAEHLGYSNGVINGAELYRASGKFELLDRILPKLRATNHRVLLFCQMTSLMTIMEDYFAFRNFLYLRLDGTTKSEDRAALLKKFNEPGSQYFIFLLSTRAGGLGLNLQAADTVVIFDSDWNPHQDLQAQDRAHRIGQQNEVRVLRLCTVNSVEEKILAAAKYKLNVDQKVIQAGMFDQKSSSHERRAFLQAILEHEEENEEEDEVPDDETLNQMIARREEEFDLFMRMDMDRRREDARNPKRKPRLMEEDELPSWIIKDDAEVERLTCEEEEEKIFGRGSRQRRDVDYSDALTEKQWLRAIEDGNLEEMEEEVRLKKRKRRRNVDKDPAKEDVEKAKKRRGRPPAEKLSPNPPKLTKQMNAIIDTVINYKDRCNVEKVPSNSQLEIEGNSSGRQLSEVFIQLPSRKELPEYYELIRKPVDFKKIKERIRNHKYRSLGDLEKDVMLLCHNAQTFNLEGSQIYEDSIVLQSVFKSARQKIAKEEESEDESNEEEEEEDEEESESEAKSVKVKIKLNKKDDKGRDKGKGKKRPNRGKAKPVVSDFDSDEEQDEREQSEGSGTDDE

Take `C[C@@]1(C#N)COCc2ccc(C(=O)NCc3cc(N4CCC(O)(c5ccccc5)C4)ccn3)cc21` (stereo partly shown) [Compound 54]: in test [1], the “BRM Max % Inhibition” value stood at 81% and the concentration for half-maximal inhibition (IC50) is 0.1 to 0.5 µM. Also, in test [2], the IC50 was greater than 1 µM and the Emax was found to be 42%.
For `C[C@@]1(C#N)COCc2ccc(C(=O)NCc3cc(N4CCC[C@H](c5ccccc5)C4)ccn3)cc21` [Compound 55] the same measures were 82%, 0.1 to 0.5 µM, greater than 1 µM and 33%.
For `COc1cccc2c1CCN(c1ccnc(CNC(=O)c3ccc4c(c3)[C@](C)(C#N)COC4)c1)C2` [Compound 56] the same measures were 98%, less than 0.1 µM, 0.1 to 0.5 µM and 92%.
Take `C[C@@]1(C#N)COCc2ccc(C(=O)NCc3cc(N4CCC5CCCCC5C4)ccn3)cc21` (stereo partly shown) [Compound 57]: in test [1], the “BRM Max % Inhibition” value came to 85% and the 50% inhibitory concentration (IC50) lay in the range of 0.1 to 0.5 µM. In addition, in test [2], the IC50 was greater than 1 µM and the Emax was determined as 37%.
For `COC1(c2ccccc2)CCN(c2ccnc(CNC(=O)c3ccc4c(c3)[C@](C)(C#N)COC4)c2)C1` (stereo partly shown) [Compound 58] the same measures were 92%, 0.1 to 0.5 µM, 0.5 to 1 µM and 50%.
The matching figures for `C[C@@]1(C#N)COCc2ccc(C(=O)NCc3cc(N4CC(n5ccc6ccccc65)C4)ccn3)cc21` [Compound 59]: 93%, 0.1 to 0.5 µM, 0.5 to 1 µM and 56%.
For `C[C@@]1(C#N)COCc2ccc(C(=O)NCc3cc(N4CCC(F)(c5ccccc5)C4)ccn3)cc21` (stereo partly shown) [Compound 60] the same measures were 93%, 0.1 to 0.5 µM, 0.5 to 1 µM and 75%.
Take `C[C@@]1(C#N)COCc2ccc(C(=O)NCc3cc(OCC4CCOCC4)ccn3)cc21` [Compound 61]: in test [1], the “BRM Max % Inhibition” value worked out at 85% and the half-inhibitory concentration (IC50) was in the range of 0.1 to 0.5 µM. Besides, in test [2], the IC50 was greater than 1 µM and the Emax stood at 25%.
For the compound `C[C@@]1(C#N)COCc2ccc(C(=O)NCc3cc(C4CCN(c5ccccc5)C4)ccn3)cc21` (stereo partly shown) [Compound 62], in test [1], the “BRM Max % Inhibition” value stood at 90% and the IC50 fell in the range of 0.1 to 0.5 µM. In test [2], the IC50 was greater than 1 µM and the Emax stood at 42%.
Regarding `C[C@@]1(C#N)COCc2ccc(C(=O)NCc3cc(N4CCc5ccc(C(F)F)cc5C4)ccn3)cc21` [Compound 63], in test [1], the “BRM Max % Inhibition” value is on record as 99% and the IC50 is less than 0.1 µM. Further, in test [2], the IC50 lay within 0.5 to 1 µM and the Emax was 84%.
On to `C[C@@]1(C#N)COCc2ccc(C(=O)NCc3cc(OCc4ccc(C#N)cc4)ccn3)cc21` [Compound 64], for which, in test [1], the “BRM Max % Inhibition” value turned out to be 87% and the IC50 was 0.1 to 0.5 µM. Besides, in test [2], the half-inhibitory concentration (IC50) was greater than 1 µM and the Emax was 36%.
`C[C@@]1(C#N)COCc2ccc(C(=O)NCc3cc(OCc4cccc(C#N)c4)ccn3)cc21` [Compound 65]: in test [1], the “BRM Max % Inhibition” value amounted to 90% and the IC50 lay in the range of 0.1 to 0.5 µM. Besides, in test [2], the IC50 is greater than 1 µM and the Emax was 39%.
Consider `C[C@@]1(C#N)COCc2ccc(C(=O)NCc3nccc(N4CCc5ccccc5C4)c3F)cc21` [Compound 66], for which, in test [1], the “BRM Max % Inhibition” value amounted to 99% and the IC50 lay in the range of 0.1 to 0.5 µM. Also, in test [2], the IC50 fell in the range of 0.5 to 1 µM and the Emax stood at 76%.
The matching figures for `C[C@@]1(C#N)COCc2ccc(C(=O)NCc3cc(N4CCc5cc(C(F)F)ccc5C4)ccn3)cc21` [Compound 67]: 97%, 0.1 to 0.5 µM, 0.5 to 1 µM and 84%.
Take `C[C@@]1(C#N)COCc2ccc(C(=O)NCc3nccc(N4Cc5ccccc5C4)c3F)cc21` [Compound 68]: in test [1], the “BRM Max % Inhibition” value amounted to 98% and the half-inhibitory concentration (IC50) was less than 0.1 µM. Also, in test [2], the IC50 lay in the range of 0.1 to 0.5 µM and the Emax came to 91%.
As to `C[C@@]1(C#N)COCc2ccc(C(=O)NCc3cc(C4CCN(c5cccc(C(F)F)n5)C4)ccn3)cc21` (stereo partly shown) [Compound 69], in test [1], the “BRM Max % Inhibition” value turned out to be 90% and the half-inhibitory concentration (IC50) is 0.1 to 0.5 µM. In test [2], the IC50 is 0.5 to 1 µM and the Emax was 50%.
Turning to `COc1ccc([C@H]2C[C@@H](c3ccnc(CNC(=O)c4ccc5c(c4)[C@](C)(C#N)COC5)c3)C2)cc1` [Compound 70], in test [1], the “BRM Max % Inhibition” value is reported as 94% and the IC50 lay within 0.1 to 0.5 µM. Further, in test [2], the IC50 is 0.5 to 1 µM and the Emax is 55%.
The matching figures for `COc1cccc([C@H]2C[C@@H](c3ccnc(CNC(=O)c4ccc5c(c4)[C@](C)(C#N)COC5)c3)C2)c1` [Compound 71]: 89%, 0.1 to 0.5 µM, greater than 1 µM and 42%.
For `COc1ccc([C@H]2C[C@H](c3ccnc(CNC(=O)c4ccc5c(c4)[C@](C)(C#N)COC5)c3)C2)cc1` [Compound 72], in test [1], the “BRM Max % Inhibition” value stood at 94% and the 50% inhibitory concentration (IC50) is less than 0.1 µM. In test [2], the IC50 was 0.1 to 0.5 µM and the Emax is 91%.
`Cn1ccc2c(c1=O)CCN(c1ccnc(CNC(=O)c3ccc4c(c3)[C@](C)(C#N)COC4)c1)C2` [Compound 73]: in test [1], the “BRM Max % Inhibition” value worked out at 84% and the half-maximal inhibitory concentration (IC50) was in the range of 0.1 to 0.5 µM. In test [2], the IC50 is greater than 1 µM and the Emax was 44%.
The matching figures for `COc1cccc([C@H]2C[C@H](c3ccnc(CNC(=O)c4ccc5c(c4)[C@](C)(C#N)COC5)c3)C2)c1` [Compound 74]: 98%, less than 0.1 µM, 0.1 to 0.5 µM and 87%.
The matching figures for `C[C@@]1(C#N)COCc2ccc(C(=O)NCc3cc(N4CCc5ccccc5C4)cnn3)cc21` [Compound 75]: 97%, 0.1 to 0.5 µM, 0.5 to 1 µM and 54%.
`CN(C)c1cccc([C@H]2C[C@H](c3ccnc(CNC(=O)c4ccc5c(c4)[C@](C)(C#N)COC5)c3)C2)n1` [Compound 76]: in test [1], the “BRM Max % Inhibition” value came out at 98% and the IC50 lay in the range of 0.1 to 0.5 µM. For the same compound, in test [2], the 50% inhibitory concentration (IC50) was greater than 1 µM and the Emax is 91%.
The matching figures for `C[C@@]1(C#N)COCc2ccc(C(=O)NCc3cc([C@H]4C[C@H](c5cccc(C6CC6)n5)C4)ccn3)cc21` [Compound 77]: 99%, 0.1 to 0.5 µM, 0.5 to 1 µM and 102%.
For the compound `C[C@@]1(C#N)COCc2ccc(C(=O)NCc3cc([C@H]4C[C@@H](c5cccc(C6CC6)n5)C4)ccn3)cc21` [Compound 78], in test [1], the “BRM Max % Inhibition” value turned out to be 96% and the 50% inhibitory concentration (IC50) is less than 0.1 µM. Also, in test [2], the half-inhibitory concentration (IC50) was in the range of 0.5 to 1 µM and the Emax was 79%.
Turning to `C[C@@]1(C#N)COCc2ccc(C(=O)NCc3cc([C@H]4C[C@H](c5cccc(N6CCOCC6)n5)C4)ccn3)cc21` [Compound 79], in test [1], the “BRM Max % Inhibition” value is given as 96% and the 50% inhibitory concentration (IC50) is 0.1 to 0.5 µM. For the same compound, in test [2], the IC50 lay within 0.5 to 1 µM and the Emax is 74%.
As to `C[C@@]1(C#N)COCc2ccc(C(=O)NCc3cc([C@H]4C[C@@H](c5cccc(N6CCOCC6)n5)C4)ccn3)cc21` [Compound 80], in test [1], the “BRM Max % Inhibition” value was determined as 83% and the concentration for half-maximal inhibition (IC50) is 0.1 to 0.5 µM. Besides, in test [2], the IC50 was greater than 1 µM and the Emax came out at 29%.
For `C[C@@H]1CN(c2cccc([C@H]3C[C@H](c4ccnc(CNC(=O)c5ccc6c(c5)[C@](C)(C#N)COC6)c4)C3)n2)C[C@H](C)O1` [Compound 81] the same measures were 98%, less than 0.1 µM, 0.1 to 0.5 µM and 90%.
For `C[C@@H]1CN(c2cccc([C@H]3C[C@@H](c4ccnc(CNC(=O)c5ccc6c(c5)[C@](C)(C#N)COC6)c4)C3)n2)C[C@H](C)O1` [Compound 82], in test [1], the “BRM Max % Inhibition” value is listed as 88% and the IC50 was 0.1 to 0.5 µM. Further, in test [2], the half-maximal inhibitory concentration (IC50) is greater than 1 µM and the Emax worked out at 38%.
The matching figures for `COCCNC(=O)c1cccc(C#Cc2ccnc(CNC(=O)c3ccc4c(c3)[C@](C)(C#N)COC4)c2)c1` [Compound 83]: 101%, less than 0.1 µM, less than 0.1 µM and 99%.
As to `CN(C)C(=O)c1cccc(C#Cc2ccnc(CNC(=O)c3ccc4c(c3)[C@](C)(C#N)COC4)c2)c1` [Compound 84], in test [1], the “BRM Max % Inhibition” value is 89% and the IC50 fell in the range of 0.1 to 0.5 µM. In addition, in test [2], the IC50 is 0.5 to 1 µM and the Emax was found to be 53%.
As for `C[C@@]1(C#N)COCc2ccc(C(=O)NCc3cc4nc(-c5ccccc5)ccc4cn3)cc21` [Compound 85], in test [1], the “BRM Max % Inhibition” value stood at 98% and the half-maximal inhibitory concentration (IC50) was less than 0.1 µM. For the same compound, in test [2] (ADP-Glo, 30 nM BRG-1, 400 μM ATP), the “BRG1 Max % Inhibition” value is given as 77%. Moreover, the IC50 in test [2] (read-out: BRG1 ATPase: IC50, ADP-Glo, 30 nM BRG-1, 400 μM ATP) was greater than 1 µM.
Regarding `C[C@@]1(F)COCc2ccc(C(=O)NCc3cc4nc(-c5ccccc5)ccc4cn3)cc21` [Compound 86], in test [1], the “BRM Max % Inhibition” value was 96% and the 50% inhibitory concentration (IC50) lay within 0.1 to 0.5 µM. In test [2], the half-inhibitory concentration (IC50) is greater than 1 µM and the Emax is 62%.
For `C[C@H](NC(=O)c1ccc2c(c1)[C@](C)(C#N)COC2)c1cc2nc(-c3ccccc3)ccc2cn1` [Compound 87] the same measures were 88%, 0.5 to 1 µM, greater than 1 µM and 87%.

Usually IC50 stands for the concentration that gives 50% inhibition.

For the origin of these results see patent US12441726B2, “Compounds and uses thereof” (Foghorn Therapeutics Inc., priority 2020, dated 2025).
